Legend:
chickweed = experiment: Test C postemergence herbicide test; assay type: in vivo, Stellaria media
Description: At the same time, plants selected from these crop and weed species and also barley (winter barley, Hordeum vulgare), […]), chickweed (common chickweed, Stellaria media), deadnettle (henbit deadnettle, Lamium amplexicaule), and canarygrass (littleseed canarygrass, Phalaris minor) were planted in pots containing Redi-Earth® planting medium (Scotts Company, 14111 Scottslawn Road, Marysville, Ohio 43041) comprising spaghnum peat moss, vermiculite, wetting agent and starter nutrients and treated with postemergence applications of test chemicals formulated in the same manner. Plants ranged in height from 2 to 18 cm (1- to 4-leaf stage) for postemergence treatments. Treated plants and controls were maintained in a greenhouse for 13 to 15 days, after which time all species were compared to controls and visually evaluated. Plant response ratings, summarized in Table C, are based on a scale of 0 to 100 where 0 is no effect and 100 is complete control. A dash (-) response means no test result.

sunflower = experiment: Test C pre-/postemergence herbicide test; assay type: in vivo, Helianthus annuus; settings: Preemergence
Description: (§1) Seeds of plant species selected from blackgrass (Alopecurus myosuroides), ryegrass, Italian (Italian ryegrass, Lolium multiflorum), wheat (winter wheat, Triticum aestivum), galium (catchweed bedstraw, Galium aparine), corn (Zea mays), crabgrass, large (large crabgrass, Digitaria sanguinalis), foxtail, giant (giant foxtail, Setaria faberii), johnsongrass (Sorghum halepense), lambsquarters (Chenopodium album), morningglory (Ipomoea coccinea), nutsedge, yellow (yellow nutsedge, Cyperus esculentus), pigweed (Amaranthus retroflexus), ragweed (common ragweed, Ambrosia elatior), soybean (Glycine max), barnyardgrass (Echinochloa crus-galli), oilseed rape (Brassica napus), waterhemp (common waterhemp, Amaranthus rudis), kochia (Kochia scoparia), oat, wild (wild oat, Avena fatua), surinam grass (Brachiaria decumbens), foxtail, green (green foxtail, Setaria viridis), goosegrass (Eleusine indica), bromegrass, downy (downy bromegrass, Bromus tectorum), nightshade (eastern black nightshade, Solanum ptycanthum), cocklebur (common cocklebur, Xanthium strumarium), cupgrass, woolly (woolly cupgrass, Eriochloa villosa), bermudagrass (Cynodon dactylon), sunflower, (common oilseed sunflower, Helianthus annuus), Russian thistle (Salsola kali) and velvetleaf (Abutilon theophrasti) were planted into a blend of loam soil and sand and treated preemergence with test chemicals formulated in a non-phytotoxic solvent mixture which included a surfactant. At the same time, plants selected from these crop and weed species and also barley (winter barley, Hordeum vulgare), […]), chickweed (common chickweed, Stellaria media), deadnettle (henbit deadnettle, Lamium amplexicaule), and canarygrass (littleseed canarygrass, Phalaris minor) were planted in pots containing Redi-Earth® planting medium (Scotts Company, 14111 Scottslawn Road, Marysville, Ohio 43041) comprising spaghnum peat moss, vermiculite, wetting agent and starter nutrients and treated with postemergence applications of test chemicals formulated in the same manner. Plants ranged in height from 2 to 18 cm (1- to 4-leaf stage) for postemergence treatments. Treated plants and controls were maintained in a greenhouse for 13 to 15 days, after which time all species were compared to controls and visually evaluated. Plant response ratings, summarized in Table C, are based on a scale of 0 to 100 where 0 is no effect and 100 is complete control. A dash (-) response means no test result.

goosegrass = experiment: Test C pre-/postemergence herbicide test; assay type: in vivo, Eleusine indica; settings: Preemergence; for Goosegrass plant response rating: 31 g ai/ha
Description: as §1

cocklebur = experiment: Test C pre-/postemergence herbicide test; assay type: in vivo, Xanthium strumarium; settings: Preemergence; for Cocklebur plant response rating: 31 g ai/ha
Description: as §1

surinam grass = experiment: Test C pre-/postemergence herbicide test; assay type: in vivo, Brachiaria decumbens; settings: Preemergence
Description: as §1

bromegrass, downy = experiment: Test C pre-/postemergence herbicide test; assay type: in vivo, Bromus tectorum; settings: Preemergence; for Bromegrass, Downy plant response rating: 31 g ai/ha
Description: as §1

nightshade = experiment: Test C pre-/postemergence herbicide test; assay type: in vivo, Solanum ptycanthum; settings: Preemergence
Description: as §1

bermudagrass = experiment: Test C pre-/postemergence herbicide test; assay type: in vivo, Cynodon dactylon; settings: Preemergence; for Bermudagrass plant response rating: 31 g ai/ha
Description: as §1

cupgrass, woolly = experiment: Test C pre-/postemergence herbicide test; assay type: in vivo, Eriochloa villosa; settings: Preemergence; for Cupgrass, Woolly plant response rating: 31 g ai/ha
Description: as §1

foxtail, green = experiment: Test C pre-/postemergence herbicide test; assay type: in vivo, Setaria viridis; settings: Preemergence; for Foxtail, Green plant response rating: 31 g ai/ha
Description: as §1

[1] = 125 g ai/ha, scale 0 to 100 (0 no effect, 100 complete control)
[2] = 250 g ai/ha, scale 0 to 100 (0 no effect, 100 complete control)
[3] = 31 g ai/ha, scale 0 to 100, 0 is no effect and 100 is complete control
[4] = scale 0 to 100, 0 is no effect and 100 is complete control
[5] = 31 g ai/ha, scale 0 to 100 (0 no effect, 100 complete control)
[6] = 62 g ai/ha, scale 0 (no effect) to 100 (complete control)
[7] = scale 0 to 100 (0 no effect, 100 complete control)

O=C1NCC(c2ccc(F)c(C(F)(F)F)c2)C1C(=O)Nc1ccccc1F (racemic) [Compound 76]
Plant response rating, Chickweed (chickweed; 31 g ai/ha, scale 0 (no effect) to 100 (complete control)): 40
Plant response rating, Chickweed (chickweed; 62 g ai/ha, scale 0 to 100 (0 no effect, 100 complete control)): 40
Plant response rating, Chickweed (chickweed; [1]): 65
Plant response rating, Chickweed (chickweed; [2]): 80

O=C1NCC(c2cccc(OC(F)(F)F)c2)C1C(=O)Nc1cccc(F)c1F (stereo not drawn) [Compound 68]
Sunflower plant response rating (sunflower; [3]): 0
Plant response rating Sunflower (sunflower; 62 g ai/ha, scale 0 to 100): 0
Plant response rating Sunflower (sunflower; [1]): 10
Goosegrass plant response rating (goosegrass; [4]): 55
Plant response rating, Goosegrass (goosegrass; 62 g ai/ha, scale 0 to 100): 75
Plant response rating, Goosegrass (goosegrass; [1]): 80
Cocklebur plant response rating (cocklebur; [4]): 15
Surinam Grass plant response rating (surinam grass; [3]): 40
Plant response rating, Surinam Grass (surinam grass; 62 g ai/ha, scale 0 to 100): 75
Plant response rating, Surinam Grass (surinam grass; [1]): 75
Bromegrass, Downy plant response rating (bromegrass, downy; [4]): 0
Plant response rating, Bromegrass, Downy (bromegrass, downy; 62 g ai/ha, scale 0 to 100): 0
Plant response rating, Bromegrass, Downy (bromegrass, downy; [1]): 0
Plant response rating, Bromegrass, Downy (bromegrass, downy; [2]): 0
Nightshade plant response rating (nightshade; [3]): 10
Plant response rating, Nightshade (nightshade; 62 g ai/ha, scale 0 to 100): 50
Plant response rating, Nightshade (nightshade; [1]): 55
Bermudagrass plant response rating (bermudagrass; [4]): 30
Plant response rating, Bermudagrass (bermudagrass; 62 g ai/ha, scale 0 to 100): 50
Plant response rating, Bermudagrass (bermudagrass; [1]): 85
Plant response rating, Bermudagrass (bermudagrass; [2]): 85
Cupgrass, Woolly plant response rating (cupgrass, woolly; [4]): 75
Plant response rating, Cupgrass, Woolly (cupgrass, woolly; 62 g ai/ha, scale 0 to 100): 75
Plant response rating, Cupgrass, Woolly (cupgrass, woolly; [1]): 85
Plant response rating, Cupgrass, Woolly (cupgrass, woolly; [2]): 90
Foxtail, Green plant response rating (foxtail, green; [4]): 90
Plant response rating, Foxtail, Green (foxtail, green; 62 g ai/ha, scale 0 to 100): 90
Plant response rating, Foxtail, Green (foxtail, green; [1]): 95
Plant response rating, Foxtail, Green (foxtail, green; [2]): 95

CN1CC(c2ccc(F)c(F)c2)C(C(=O)Nc2ccccc2F)C1=O (stereo not drawn) [Compound 302]
Plant response rating, Chickweed (chickweed; [5]): 0
Plant response rating, Chickweed (chickweed; [6]): 0
Plant response rating, Chickweed (chickweed; [1]): 5
Plant response rating, Chickweed (chickweed; [2]): 70

O=C1NCC(c2cccc(Cl)c2)C1C(=O)Nc1cccc(F)c1F (racemic) [Compound 275]
Plant response rating, Chickweed (chickweed; [5]): 50
Plant response rating, Chickweed (chickweed; [6]): 60
Plant response rating, Chickweed (chickweed; [1]): 85
Plant response rating, Chickweed (chickweed; [2]): 85

O=C1NCC(c2cc(F)c(F)c(F)c2)C1C(=O)Nc1ccccc1C(F)(F)F (racemic) [Compound 33]
Plant response rating Sunflower (sunflower; 62 g ai/ha, scale 0 to 100): 10
Goosegrass plant response rating (goosegrass; [7]): 5
Plant response rating, Goosegrass (goosegrass; 62 g ai/ha, scale 0 to 100): 5
Plant response rating, Goosegrass (goosegrass; [1]): 40
Cocklebur plant response rating (cocklebur; [7]): 0
Plant response rating, Cocklebur (cocklebur; [1]): 10
Plant response rating, Cocklebur (cocklebur; [2]): 10
Plant response rating, Surinam Grass (surinam grass; 62 g ai/ha, scale 0 to 100): 80
Plant response rating, Surinam Grass (surinam grass; [1]): 95
Bromegrass, Downy plant response rating (bromegrass, downy; [7]): 0
Plant response rating, Bromegrass, Downy (bromegrass, downy; 62 g ai/ha, scale 0 to 100): 0
Plant response rating, Bromegrass, Downy (bromegrass, downy; [1]): 0
Plant response rating, Bromegrass, Downy (bromegrass, downy; [2]): 55
Plant response rating, Nightshade (nightshade; 62 g ai/ha, scale 0 to 100): 0
Plant response rating, Nightshade (nightshade; [1]): 0
Bermudagrass plant response rating (bermudagrass; [7]): 0
Plant response rating, Bermudagrass (bermudagrass; 62 g ai/ha, scale 0 to 100): 0
Plant response rating, Bermudagrass (bermudagrass; [1]): 70
Plant response rating, Bermudagrass (bermudagrass; [2]): 98
Cupgrass, Woolly plant response rating (cupgrass, woolly; [7]): 60
Plant response rating, Cupgrass, Woolly (cupgrass, woolly; 62 g ai/ha, scale 0 to 100): 85
Plant response rating, Cupgrass, Woolly (cupgrass, woolly; [1]): 90
Plant response rating, Cupgrass, Woolly (cupgrass, woolly; [2]): 90
Foxtail, Green plant response rating (foxtail, green; [7]): 95
Plant response rating, Foxtail, Green (foxtail, green; 62 g ai/ha, scale 0 to 100): 98
Plant response rating, Foxtail, Green (foxtail, green; [1]): 100
Plant response rating, Foxtail, Green (foxtail, green; [2]): 100

O=C1NCC(c2cccc(C(F)(F)F)c2)C1C(=O)Nc1ccc(F)cc1F (racemic) [Compound 207]
Plant response rating, Chickweed (chickweed; [5]): 30
Plant response rating, Chickweed (chickweed; [6]): 50
Plant response rating, Chickweed (chickweed; [1]): 60
Plant response rating, Chickweed (chickweed; [2]): 90

O=C1NCC(c2ccc(Cl)c(F)c2)C1C(=O)Nc1ccccc1F (stereo not drawn) [Compound 53]
Plant response rating Sunflower (sunflower; 62 g ai/ha, scale 0 to 100): 15
Plant response rating Sunflower (sunflower; [1]): 20
Goosegrass plant response rating (goosegrass; [7]): 0
Plant response rating, Goosegrass (goosegrass; 62 g ai/ha, scale 0 to 100): 10
Plant response rating, Goosegrass (goosegrass; [1]): 30
Plant response rating, Cocklebur (cocklebur; [1]): 5
Plant response rating, Cocklebur (cocklebur; [2]): 5
Plant response rating, Surinam Grass (surinam grass; 62 g ai/ha, scale 0 to 100): 25
Plant response rating, Surinam Grass (surinam grass; [1]): 75
Bromegrass, Downy plant response rating (bromegrass, downy; [7]): 0
Plant response rating, Bromegrass, Downy (bromegrass, downy; 62 g ai/ha, scale 0 to 100): 0
Plant response rating, Bromegrass, Downy (bromegrass, downy; [1]): 0
Plant response rating, Bromegrass, Downy (bromegrass, downy; [2]): 0
Plant response rating, Nightshade (nightshade; 62 g ai/ha, scale 0 to 100): 0
Plant response rating, Nightshade (nightshade; [1]): 40
Bermudagrass plant response rating (bermudagrass; [7]): 40
Plant response rating, Bermudagrass (bermudagrass; 62 g ai/ha, scale 0 to 100): 40
Plant response rating, Bermudagrass (bermudagrass; [1]): 50
Plant response rating, Bermudagrass (bermudagrass; [2]): 50
Cupgrass, Woolly plant response rating (cupgrass, woolly; [7]): 35
Plant response rating, Cupgrass, Woolly (cupgrass, woolly; 62 g ai/ha, scale 0 to 100): 65
Plant response rating, Cupgrass, Woolly (cupgrass, woolly; [1]): 80
Plant response rating, Cupgrass, Woolly (cupgrass, woolly; [2]): 80
Foxtail, Green plant response rating (foxtail, green; [7]): 30
Plant response rating, Foxtail, Green (foxtail, green; 62 g ai/ha, scale 0 to 100): 90
Plant response rating, Foxtail, Green (foxtail, green; [1]): 90
Plant response rating, Foxtail, Green (foxtail, green; [2]): 90

From patent US10294202B2, “Pyrrolidinones as herbicides” (FMC Corporation, priority 2013, dated 2019)
